Assays:
TBK1 = target: T1, TBK1 (Homo sapiens, UniProt Q9UHD2); assay: Kinobeads competition binding, L-363 cell lysate; set-up: capturing and identification of kinases from L-363 cell lysate; endogenous in cells; host or cells: L-363 (treated with MG132 before harvest); conditions: 10 μM free compound, L-363 lysate
T1 sequence (Q9UHD2 1-729): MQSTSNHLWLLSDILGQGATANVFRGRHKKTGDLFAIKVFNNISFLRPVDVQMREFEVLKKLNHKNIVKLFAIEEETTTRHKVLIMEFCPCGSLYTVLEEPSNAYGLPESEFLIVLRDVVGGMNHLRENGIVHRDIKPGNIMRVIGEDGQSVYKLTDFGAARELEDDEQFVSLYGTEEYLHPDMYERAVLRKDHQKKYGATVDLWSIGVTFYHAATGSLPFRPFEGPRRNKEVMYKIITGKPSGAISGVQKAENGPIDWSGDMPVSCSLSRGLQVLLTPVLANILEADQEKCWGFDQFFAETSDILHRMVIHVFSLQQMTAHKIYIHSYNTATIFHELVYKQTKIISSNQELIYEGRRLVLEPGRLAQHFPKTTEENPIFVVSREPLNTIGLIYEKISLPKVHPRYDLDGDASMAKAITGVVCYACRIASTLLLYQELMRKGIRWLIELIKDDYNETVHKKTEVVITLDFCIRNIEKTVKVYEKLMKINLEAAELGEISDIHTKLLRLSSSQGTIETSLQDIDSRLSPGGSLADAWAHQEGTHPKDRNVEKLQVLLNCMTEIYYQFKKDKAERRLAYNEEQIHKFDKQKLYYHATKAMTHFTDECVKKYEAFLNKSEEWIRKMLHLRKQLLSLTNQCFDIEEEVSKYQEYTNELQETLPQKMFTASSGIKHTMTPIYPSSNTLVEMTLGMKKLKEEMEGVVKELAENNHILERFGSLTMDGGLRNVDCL
Procedure: (§1) To one aliquot of cell lysate 10 μM of the free compound (FIG. 3, CZC31326) was added and allowed to bind to proteins in the lysate. Then the affinity matrix with the immobilized compound was added to capture proteins that were not interacting with the previously added free compound. Beads were separated from the lysate and bead bound proteins were eluted in SDS sample buffer and subsequently separated by SDS-Polyacrylamide gel electrophoresis (FIG. 8). Suitable gel bands were cut out and subjected to in-gel proteolytic digestion with trypsin. The second lysate aliquot was processed identically, however no free compound was added (DMSO solvent control). Peptides originating from samples 1 and 2 were labeled with iTRAQ reagents (iTRAQ 114 and iTRAQ 117) and the combined samples were analyzed with a nano-flow liquid chromatography system coupled online to a tandem mass spectrometer (LC-MS/MS) experiment followed by iTRAQ reporter ion quantification in the MS/MS spectra as described in Example 2.
For this experiment the human plasma cell leukaemia line L-363 was used (German Collection of Microorganisms and Cell Cultures, DSMZ number ACC49, Braunschweig, Germany). Cells were treated for three hours with 20 μM of the proteasome inhibitor MG132 (Z-Leu-Leu-Leu-al, Sigma C2211) prior to cell harvesting.

ALK2 = ALK2 (Homo sapiens, UniProt Q04771); assay: Kinobeads competition binding, HeLa Placenta lysate mix; set-up: capturing and identification of kinases from mixed HeLa placenta lysates; endogenous in cells; host or cells: mix of HeLa cell lysate and placenta tissue lysate; conditions: 10 μM free compound
Procedure: as §1, with “10).” for “8).”

ARG = ARG (Homo sapiens, UniProt P42684); assay: as above; set-up: capturing and identification of kinases from mixed HeLa placenta lysates; endogenous in cells; host or cells: mix of HeLa cell lysate and placenta tissue lysate; conditions: 10 μM free compound
Procedure: as §1, with “10).” for “8).”

CDK2 = CDK2 (Homo sapiens, UniProt P24941); assay: as above; set-up: capturing and identification of kinases from mixed HeLa placenta lysates; endogenous in cells; host or cells: mix of HeLa cell lysate and placenta tissue lysate; conditions: 10 μM free compound
Procedure: as §1, with “10).” for “8).”

CDK9 = CDK9 (Homo sapiens, UniProt P50750); assay: as above; set-up: capturing and identification of kinases from mixed HeLa placenta lysates; endogenous in cells; host or cells: mix of HeLa cell lysate and placenta tissue lysate; conditions: 10 μM free compound
Procedure: as §1, with “10).” for “8).”

CK2a2 = CK2a2 (Homo sapiens, UniProt P19784); assay: as above; set-up: capturing and identification of kinases from mixed HeLa placenta lysates; endogenous in cells; host or cells: mix of HeLa cell lysate and placenta tissue lysate; conditions: 10 μM free compound
Procedure: as §1, with “10).” for “8).”

MST2 = MST2 (Homo sapiens, UniProt Q13188); assay: as above; set-up: capturing and identification of kinases from mixed HeLa placenta lysates; endogenous in cells; host or cells: mix of HeLa cell lysate and placenta tissue lysate; conditions: 10 μM free compound
Procedure: as §1, with “10).” for “8).”

inhibition at 10 µM (TBK1): 95.8% | inhibition at 10 µM (ALK2): 94.3% | inhibition at 10 µM (ARG): 91.2% | Competition % (CDK2): 93% | inhibition at 10 µM (CDK9): 95.3% | inhibition at 10 µM (CK2a2): 95.4% | inhibition at 10 µM (MST2): 93.9%
Compound: CS(=O)(=O)Nc1ccccc1Nc1nc(Nc2cccc(OCCN)c2)ncc1Cl [CZC31326, N-(2-(2-(3-(2-aminoethoxy)phenylamino)-5-chloropyrimidin-4-ylamino)phenyl)methanesulfonamide]
